Measurements taken from ChEMBL document CHEMBL1136853, “Synthesis and SAR of vinca alkaloid analogues” (Bioorg Med Chem Lett, 2009).

Key:
Assay type in all cases: functional
MCF7 = experiment: Cytotoxicity against human MCF7 cells
HeLa = experiment: Cytotoxicity against human HeLa cells
P388 [1] = experiment: Antitumor activity against mouse P388 cells xenografted in mouse assessed as median life span at 12 mg/kg, ip q4d for 3 days measured for 60 days; conditions: route intraperitoneal
P388 [2] = experiment: Antitumor activity against mouse P388 cells xenografted in mouse assessed as median life span at 6 mg/kg, ip q4d for 3 days measured for 60 days; conditions: route intraperitoneal
P388 [3] = experiment: Antitumor activity against mouse P388 cells xenografted in mouse assessed as median life span at 4 mg/kg, ip q4d for 3 days measured for 60 days; conditions: route intraperitoneal
P388 [4] = experiment: Antitumor activity against mouse P388 cells xenografted in mouse assessed as median life span at 8 mg/kg, ip q4d for 3 days measured for 60 days; conditions: route intraperitoneal

SMILES | GI50 (MCF7) | GI50 (HeLa) | T/C (P388 [1]) | T/C (P388 [2]) | T/C (P388 [3]) | T/C (P388 [4])
CC[C@]1(O)C[C@H]2CN(CCc3c([nH]c4ccc(SC)cc34)[C@@](C(=O)OC)(c3cc4c(cc3OC)N(C=O)[C@H]3[C@@](O)(C(=O)OC)[C@H](OC(C)=O)[C@]5(CC)CC=CN6CC[C@]43[C@@H]65)C2)C1 | 3 nM | 3 nM | – | – | – | –
CC[C@]1(O)C[C@H]2CN(CCc3c([nH]c4ccc(C)cc34)[C@@](C(=O)OC)(c3cc4c(cc3OC)N(C=O)[C@H]3[C@@](O)(C(=O)OC)[C@H](OC(C)=O)[C@]5(CC)CC=CN6CC[C@]43[C@@H]65)C2)C1 | 3 nM | 1 nM | – | – | – | –
CC[C@]1(O)C[C@H]2CN(CCc3c([nH]c4ccc(-c5ccccc5)cc34)[C@@](C(=O)OC)(c3cc4c(cc3OC)N(C=O)[C@H]3[C@@](O)(C(=O)OC)[C@H](OC(C)=O)[C@]5(CC)CC=CN6CC[C@]43[C@@H]65)C2)C1 | 35 nM | 50 nM | – | – | – | –
C#Cc1ccc2[nH]c3c(c2c1)CN1CC(CC)=C[C@@H](C1)C[C@]3(C(=O)OC)c1cc2c(cc1OC)N(C)[C@H]1[C@@](O)(C(=O)OC)[C@H](OC(C)=O)[C@]3(CC)CC=CN4CC[C@]21[C@@H]43 | 5 nM | 0.4 nM | – | – | – | –
CC[C@]1(O)C[C@H]2CN(CCc3c([nH]c4ccc(C#N)cc34)[C@@](C(=O)OC)(c3cc4c(cc3OC)N(C)[C@H]3[C@@](O)(C(=O)OC)[C@H](OC(C)=O)[C@]5(CC)CC=CN6CC[C@]43[C@@H]65)C2)C1 | 3 nM | 3 nM | – | – | – | –
CCSc1ccc2[nH]c3c(c2c1)CN1CC(CC)=C[C@@H](C1)C[C@]3(C(=O)OC)c1cc2c(cc1OC)N(C)[C@H]1[C@@](O)(C(=O)OC)[C@H](OC(C)=O)[C@]3(CC)CC=CN4CC[C@]21[C@@H]43 | 20 nM | 5 nM | – | – | – | –
CCSc1ccc2[nH]c3c(c2c1)CCN1C[C@H](C[C@@](O)(CC)C1)C[C@]3(C(=O)OC)c1cc2c(cc1OC)N(C)[C@H]1[C@@](O)(C(=O)OC)[C@H](OC(C)=O)[C@]3(CC)CC=CN4CC[C@]21[C@@H]43 | 3 nM | 2 nM | – | – | – | –
CC[C@]1(O)C[C@H]2CN(CCc3c([nH]c4ccc(-c5ccccc5)cc34)[C@@](C(=O)OC)(c3cc4c(cc3OC)N(C)[C@H]3[C@@](O)(C(=O)OC)[C@H](OC(C)=O)[C@]5(CC)CC=CN6CC[C@]43[C@@H]65)C2)C1 | 300 nM | 400 nM | – | – | – | –
C#Cc1ccc2[nH]c3c(c2c1)CCN1C[C@H](C[C@@](O)(CC)C1)C[C@]3(C(=O)OC)c1cc2c(cc1OC)N(C)[C@H]1[C@@](O)(C(=O)OC)[C@H](OC(C)=O)[C@]3(CC)CC=CN4CC[C@]21[C@@H]43 | 5 nM | 20 nM | – | – | – | –
CC[C@]1(O)C[C@H]2CN(CCc3c([nH]c4ccc(C(=O)OC)cc34)[C@@](C(=O)OC)(c3cc4c(cc3OC)N(C)[C@H]3[C@@](O)(C(=O)OC)[C@H](OC(C)=O)[C@]5(CC)CC=CN6CC[C@]43[C@@H]65)C2)C1 | 30 nM | 20 nM | – | – | – | –
CCC1=C[C@H]2CN(C1)Cc1c([nH]c3ccc(C#N)cc13)[C@@](C(=O)OC)(c1cc3c(cc1OC)N(C)[C@H]1[C@@](O)(C(=O)OC)[C@H](OC(C)=O)[C@]4(CC)CC=CN5CC[C@]31[C@@H]54)C2 | 6 nM | 1 nM | – | – | – | –
CCC1=C[C@H]2CN(C1)Cc1c([nH]c3ccc(C(=O)OC)cc13)[C@@](C(=O)OC)(c1cc3c(cc1OC)N(C)[C@H]1[C@@](O)(C(=O)OC)[C@H](OC(C)=O)[C@]4(CC)CC=CN5CC[C@]31[C@@H]54)C2 | 50 nM | 30 nM | – | – | – | –
CCSc1ccc2[nH]c3c(c2c1)CCN1C[C@H](C[C@@](O)(CC)C1)C[C@]3(C(=O)OC)c1cc2c(cc1OC)N(C=O)[C@H]1[C@@](O)(C(=O)OC)[C@H](OC(C)=O)[C@]3(CC)CC=CN4CC[C@]21[C@@H]43 | 8 nM | 6 nM | 105% | 107% | – | –
CC[C@]1(O)C[C@H]2CN(CCc3c([nH]c4ccc(C#N)cc34)[C@@](C(=O)OC)(c3cc4c(cc3OC)N(C=O)[C@H]3[C@@](O)(C(=O)OC)[C@H](OC(C)=O)[C@]5(CC)CC=CN6CC[C@]43[C@@H]65)C2)C1 | 4 nM | 10 nM | – | – | – | –
CC[C@]1(O)C[C@H]2CN(CCc3c([nH]c4ccc(N5CCCCC5)cc34)[C@@](C(=O)OC)(c3cc4c(cc3OC)N(C)[C@H]3[C@@](O)(C(=O)OC)[C@H](OC(C)=O)[C@]5(CC)CC=CN6CC[C@]43[C@@H]65)C2)C1 | 30 nM | 20 nM | – | – | – | –
CC[C@]1(O)C[C@H]2CN(CCc3c([nH]c4ccc(C(=O)O)cc34)[C@@](C(=O)OC)(c3cc4c(cc3OC)N(C)[C@H]3[C@@](O)(C(=O)OC)[C@H](OC(C)=O)[C@]5(CC)CC=CN6CC[C@]43[C@@H]65)C2)C1 | > 1000 nM | > 1000 nM | – | – | – | –
CCC1=C[C@H](C[C@](C(=O)OC)(c2cc3c(cc2OC)N(C)[C@H]2[C@@](O)(C(=O)OC)[C@H](OC(C)=O)[C@]4(CC)CC=CN5CC[C@]32[C@@H]54)c2[nH]c3ccc(N)cc3c2CC)CNC1 | 600 nM | 300 nM | – | – | – | –

SMILES | GI50 (MCF7) | GI50 (HeLa) | T/C (P388 [1]) | T/C (P388 [2]) | T/C (P388 [3]) | T/C (P388 [4])
CCC1=C[C@H]2CN(C1)Cc1c([nH]c3ccc(-c4cccc(F)c4)cc13)[C@@](C(=O)OC)(c1cc3c(cc1OC)N(C)[C@H]1[C@@](O)(C(=O)OC)[C@H](OC(C)=O)[C@]4(CC)CC=CN5CC[C@]31[C@@H]54)C2 | > 1000 nM | > 1000 nM | – | – | – | –
CCC1=C[C@H]2CN(C1)Cc1c([nH]c3ccc(C(N)=O)cc13)[C@@](C(=O)OC)(c1cc3c(cc1OC)N(C)[C@H]1[C@@](O)(C(=O)OC)[C@H](OC(C)=O)[C@]4(CC)CC=CN5CC[C@]31[C@@H]54)C2 | > 1000 nM | > 1000 nM | – | – | – | –
CC[C@]1(O)C[C@H]2CN(CCc3c([nH]c4ccc(C(C)=O)cc34)[C@@](C(=O)OC)(c3cc4c(cc3OC)N(C)[C@H]3[C@@](O)(C(=O)OC)[C@H](OC(C)=O)[C@]5(CC)CC=CN6CC[C@]43[C@@H]65)C2)C1 | 100 nM | 200 nM | – | – | – | –
CC[C@]1(O)C[C@H]2CN(CCc3c([nH]c4ccc(N)cc34)[C@@](C(=O)OC)(c3cc4c(cc3OC)N(C)[C@H]3[C@@](O)(C(=O)OC)[C@H](OC(C)=O)[C@]5(CC)CC=CN6CC[C@]43[C@@H]65)C2)C1 | 200 nM | 200 nM | – | – | – | –
CC[C@]1(O)C[C@H]2CN(CCc3c([nH]c4ccc(SC)cc34)[C@@](C(=O)OC)(c3cc4c(cc3OC)N(C)[C@H]3[C@@](O)(C(=O)OC)[C@H](OC(C)=O)[C@]5(CC)CC=CN6CC[C@]43[C@@H]65)C2)C1 | 2 nM | 0.6 nM | – | – | 110% | 243%
CCC1=C[C@H]2CN(C1)Cc1c([nH]c3ccc(C(C)=O)cc13)[C@@](C(=O)OC)(c1cc3c(cc1OC)N(C)[C@H]1[C@@](O)(C(=O)OC)[C@H](OC(C)=O)[C@]4(CC)CC=CN5CC[C@]31[C@@H]54)C2 | 20 nM | 4 nM | – | – | – | –
CC[C@]1(O)C[C@H]2CN(CCc3c([nH]c4ccc(-c5cccc(F)c5)cc34)[C@@](C(=O)OC)(c3cc4c(cc3OC)N(C)[C@H]3[C@@](O)(C(=O)OC)[C@H](OC(C)=O)[C@]5(CC)CC=CN6CC[C@]43[C@@H]65)C2)C1 | 300 nM | 300 nM | – | – | – | –
CCC1=C[C@H]2CN(C1)Cc1c([nH]c3ccc(C(=O)O)cc13)[C@@](C(=O)OC)(c1cc3c(cc1OC)N(C)[C@H]1[C@@](O)(C(=O)OC)[C@H](OC(C)=O)[C@]4(CC)CC=CN5CC[C@]31[C@@H]54)C2 | > 1000 nM | > 1000 nM | – | – | – | –
CC[C@]1(O)C[C@H]2CN(CCc3c([nH]c4ccc(SCC(=O)O)cc34)[C@@](C(=O)OC)(c3cc4c(cc3OC)N(C)[C@H]3[C@@](O)(C(=O)OC)[C@H](OC(C)=O)[C@]5(CC)CC=CN6CC[C@]43[C@@H]65)C2)C1 | 200 nM | 50 nM | – | – | – | –
CC[C@]1(O)C[C@H]2CN(CCc3c([nH]c4ccc(C(N)=O)cc34)[C@@](C(=O)OC)(c3cc4c(cc3OC)N(C)[C@H]3[C@@](O)(C(=O)OC)[C@H](OC(C)=O)[C@]5(CC)CC=CN6CC[C@]43[C@@H]65)C2)C1 | > 1000 nM | > 1000 nM | – | – | – | –
CCc1ccc2[nH]c3c(c2c1)CCN1C[C@H](C[C@@](O)(CC)C1)C[C@]3(C(=O)OC)c1cc2c(cc1OC)N(C)[C@H]1[C@@](O)(C(=O)OC)[C@H](OC(C)=O)[C@]3(CC)CC=CN4CC[C@]21[C@@H]43 | 0.6 nM | 0.3 nM | – | – | – | –
CCc1ccc2[nH]c3c(c2c1)CCN1C[C@H](C[C@@](O)(CC)C1)C[C@]3(C(=O)OC)c1cc2c(cc1OC)N(C=O)[C@H]1[C@@](O)(C(=O)OC)[C@H](OC(C)=O)[C@]3(CC)CC=CN4CC[C@]21[C@@H]43 | 10 nM | 5 nM | – | – | – | –
CCC1=C[C@H]2CN(C1)Cc1c([nH]c3ccc(-c4ccccc4)cc13)[C@@](C(=O)OC)(c1cc3c(cc1OC)N(C)[C@H]1[C@@](O)(C(=O)OC)[C@H](OC(C)=O)[C@]4(CC)CC=CN5CC[C@]31[C@@H]54)C2 | 300 nM | 70 nM | – | – | – | –
CC[C@]1(O)C[C@H]2CN(CCc3c([nH]c4ccc(-c5nccs5)cc34)[C@@](C(=O)OC)(c3cc4c(cc3OC)N(C)[C@H]3[C@@](O)(C(=O)OC)[C@H](OC(C)=O)[C@]5(CC)CC=CN6CC[C@]43[C@@H]65)C2)C1 | 100 nM | 200 nM | – | – | – | –
CC[C@]1(O)C[C@@H]2CN(CCc3c([nH]c4ccccc34)[C@@](C(=O)OC)(c3cc4c(cc3OC)N(C)[C@H]3[C@@](O)(C(=O)OC)[C@H](OC(C)=O)[C@]5(CC)C=CCN6CC[C@]43[C@@H]65)C2)C1 [VINBLASTINE] | 0.4 nM | 0.9 nM | – | – | – | –
CC[C@]1(O)C[C@H]2CN(CCc3c([nH]c4ccccc34)[C@@](C(=O)OC)(c3cc4c(cc3OC)N(C=O)[C@H]3[C@@](O)(C(=O)OC)[C@H](OC(C)=O)[C@]5(CC)C=CCN6CC[C@]43[C@@H]65)C2)C1 [VINCRISTINE] | 1.5 nM | 1.7 nM | – | – | – | –
